29 compounds from US11981661B2, “Heterocyclic compounds” (Hoffmann-La Roche Inc., priority 2020, dated 2024) can be followed below.

One may read the IC50 as the midpoint of a concentration-inhibition curve.

The structures appear in SMILES notation.

This assay has as its target T1, MAGL (Homo sapiens, UniProt Q99685).
T1 sequence (Q99685 1-303): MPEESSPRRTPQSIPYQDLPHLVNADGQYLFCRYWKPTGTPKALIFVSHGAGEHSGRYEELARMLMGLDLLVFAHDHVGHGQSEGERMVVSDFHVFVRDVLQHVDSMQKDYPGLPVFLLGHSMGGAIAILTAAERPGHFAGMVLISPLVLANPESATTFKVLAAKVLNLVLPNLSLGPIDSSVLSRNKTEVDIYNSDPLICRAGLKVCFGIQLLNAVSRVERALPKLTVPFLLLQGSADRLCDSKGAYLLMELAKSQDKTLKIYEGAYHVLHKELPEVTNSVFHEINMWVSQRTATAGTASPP
Description: 2-AG assay (MAGL inhibitory activity, hydrolysis of 2-arachidonoylglycerol followed by mass spectrometry). In kind it is biochemical. Conditions: 50 pM MAGL, 8 μM 2-arachidonoylglycerol, 15 min preincubation, 30 min incubation at RT, concentration range 12.5 μM to 0.8 pM. The procedure: Compounds were profiled for MAGL inhibitory activity by determining the enzymatic activity by following the hydrolysis of the natural substrate 2-arachidonoylglycerol resulting in arachidonic acid, which can be followed by mass spectrometry. This assay is hereinafter abbreviated “2-AG assay”.
The 2-AG assay was carried out in 384 well assay plates (PP, Greiner Cat #784201) in a total volume of 20 μL. Compound dilutions were made in 100% DMSO (VWR Chemicals 23500.297) in a polypropylene plate in 3-fold dilution steps to give a final concentration range in the assay from 12.5 μM to 0.8 pM. 0.25 μL compound dilutions (100% DMSO) were added to 9 μL MAGL in assay buffer (50 mM TRIS (GIBCO, 15567-027), 1 mM EDTA (Fluka, 03690-100 mL), 0.01% (v/v) Tween. After shaking, the plate was incubated for 15 min at RT. To start the reaction, 10 μL 2-arachidonoylglycerol in assay buffer was added. The final concentrations in the assay was 50 pM MAGL and 8 μM 2-arachidonoylglyerol. After shaking and 30 min incubation at RT, the reaction was quenched by the addition of 40 μL of ACN containing 4 μM of d8-arachidonic acid. The amount of arachidonic acid was traced by an online SPE system (Agilent Rapidfire) coupled to a triple quadrupole mass spectrometer (Agilent 6460). A C18 SPE cartridge (G9205A) was used in an ACN/water liquid setup. The mass spectrometer was operated in negative electrospray mode following the mass transitions 303.1→259.1 for arachidonic acid and 311.1→267.0 for d8-arachidonic acid. The activity of the compounds was calculated based on the ratio of intensities [arachidonic acid/d8-arachidonic acid].
Turning to `O=C1CCC(CCC(=O)N2C[C@@H]3CN(Cc4ccc(C(F)(F)F)cc4F)C[C@H]3C2)N1` (single isomer, unassigned; (+)) [Example 12], it took 2310 nM to reach half-maximal inhibition (IC50). This lies in the single-digit micromolar range.
The same measure for `O=C1COCC(CCC(=O)N2CC(OCc3ccc(C(F)(F)F)cc3F)C2)N1` (single isomer, unassigned; (+)) [Example 51, (+)-5-[3-[3-[[2-Fluoro-4-(trifluoromethyl)phenyl]methoxy]azetidin-1-yl]-3-oxo-propyl]morpholin-3-one]: 287 nM; for `O=C1CCC(CCC(=O)N2CC(OCc3ccc(C(F)(F)F)cc3F)C2)N1` (single isomer, unassigned; (-)) [Example 1, (−)-5-[3-[3-[[2-Fluoro-4-(trifluoromethyl)phenyl]methoxy]azetidin-1-yl]-3-oxo-propyl]pyrrolidin-2-one]: 3960 nM.
Turning to `CC(C)(C)c1ccc(C2CN(C(=O)CCC3CCC(=O)N3)C2)cc1` (single isomer, unassigned; (-)) [Example 3, (−)-5-[3-[3-(4-tert-Butylphenyl)azetidin-1-yl]-3-oxo-propyl]pyrrolidin-2-one], half-maximal inhibition (IC50) required 273 nM.
Then `O=C1CCC(CCC(=O)N2CC(c3ccc(C4(C(F)(F)F)CC4)cc3)C2)N1` (single isomer, unassigned; (-)) [Example 5, (−)-5-[3-Oxo-3-[3-[4-[1-(trifluoromethyl)cyclopropyl]phenyl]azetidin-1-yl]propyl]pyrrolidin-2-one], with 627 nM.
The same measure for `O=C1CCC(CCC(=O)N2CC(c3ccc(-c4ccc(F)cc4F)cc3)C2)N1` (single isomer, unassigned; (-)) [Example 9, (−)-5-[3-[3-[4-(2,4-Difluorophenyl)phenyl]azetidin-1-yl]-3-oxo-propyl]pyrrolidin-2-one]: 550 nM.
Regarding `O=C1CCC(CCC(=O)N2C[C@@H]3CN(Cc4ccc(C(F)(F)F)cc4F)C[C@H]3C2)N1` (single isomer, unassigned; (-)) [Example 11], the IC50 was ≥ 12500 nM.
The same measure for `O=C1COCC(CCC(=O)N2CC(OCc3ccc(C(F)(F)F)cc3F)C2)N1` (single isomer, unassigned; (-)) [Example 50, (−)-5-[3-[3-[[2-Fluoro-4-(trifluoromethyl)phenyl]methoxy]azetidin-1-yl]-3-oxo-propyl]morpholin-3-one]: ≥ 12500 nM.
The same measure for `CC1(CCC(=O)N2CC(OCc3ccc(C(F)(F)F)cc3F)C2)CCC(=O)N1` (stereo not drawn) [Example 14, (+)- or (−)-5-[3-[3-[[2-Fluoro-4-(trifluoromethyl)phenyl]methoxy]azetidin-1-yl]-3-oxo-propyl]-5-methyl-pyrrolidin-2-one]: 2110 nM; for `O=C1N[C@@H](CCC(=O)N2CC(OCc3ccc(C(F)(F)F)cc3F)C2)CO1` [Example 19, (4S)-4-[3-[3-[[2-Fluoro-4-(trifluoromethyl)phenyl]methoxy]azetidin-1-yl]-3-oxo-propyl]oxazolidin-2-one]: 1550 nM.
Then `O=C1N[C@H](CCC(=O)N2CC(OCc3ccc(C(F)(F)F)cc3F)C2)CO1` [Example 20, (4R)-4-[3-[3-[[2-Fluoro-4-(trifluoromethyl)phenyl]methoxy]azetidin-1-yl]-3-oxo-propyl]oxazolidin-2-one], with 7 nM; and `O=C1N[C@@H](CCC(=O)N2CC(c3ccc(C4(C(F)(F)F)CC4)cc3)C2)CO1` [Example 21, (4S)-4-[3-Oxo-3-[3-[4-[1-(trifluoromethyl)cyclo-propyl]phenyl]azetidin-1-yl]propyl]oxazolidin-2-one], with 254 nM.
`O=C1N[C@H](CCC(=O)N2CC(c3ccc(C4(C(F)(F)F)CC4)cc3)C2)CO1` [Example 22, (4R)-4-[3-Oxo-3-[3-[4-[1-(trifluoromethyl)cyclo-propyl]phenyl]azetidin-1-yl]propyl]oxazolidin-2-one] gave an IC50 of 1 nM.
Then `O=C1N[C@@H](CCC(=O)N2CC(c3ccc(-c4ccc(F)cc4F)cc3)C2)CO1` [Example 23, (4S)-4-[3-[3-[4-(2,4-Difluorophenyl)phenyl]azetidin-1-yl]-3-oxo-propyl]oxazolidin-2-one], with 381 nM; and `O=C1N[C@H](CCC(=O)N2CC(c3ccc(-c4ccc(F)cc4F)cc3)C2)CO1` [Example 24, (4R)-4-[3-[3-[4-(2,4-Difluorophenyl)phenyl]azetidin-1-yl]-3-oxo-propyl]oxazolidin-2-one], with 2 nM; and `CC(C)(Oc1ccc(C2CN(C(=O)CC[C@@H]3COC(=O)N3)C2)cc1)C(F)(F)F` [Example 25, (4R)-4-[3-Oxo-3-[3-[4-(2,2,2-trifluoro-1,1-dimethyl-ethoxy)phenyl]azetidin-1-yl]propyl]oxazolidin-2-one], with 1 nM.
The same measure for `O=C1N[C@H](CCC(=O)N2CC(OCc3ccc(S(F)(F)(F)(F)F)cc3F)C2)CO1` [Example 26, (4R)-4-[3-[3-[[2-Fluoro-4-(pentafluoro-λ^6-sulfanyl)phenyl]methoxy]azetidin-1-yl]-3-oxo-propyl]oxazolidin-2-one]: 4 nM; for `O=C1N[C@H](CCC(=O)N2CC3(CC(Cc4ccc(F)cc4F)C3)C2)CO1` [Example 27, (4R)-4-[3-[6-[(2,4-Difluorophenyl)methyl]-2-azaspiro[3.3]heptan-2-yl]-3-oxo-propyl]oxazolidin-2-one]: 0.5 nM; for `O=C1N[C@H](CCC(=O)N2CC(c3ccc(Oc4ccccc4Cl)nc3)C2)CO1` [Example 28, (4R)-4-[3-[3-[6-(2-Chlorophenoxy)-3-pyridyl]azetidin-1-yl]-3-oxo-propyl]oxazolidin-2-one]: 10 nM.
Consider `O=C1N[C@H](CCC(=O)N2CC3(CC(Oc4ccc(F)cc4Cl)C3)C2)CO1` [Example 29, (4R)-4-[3-[6-(2-Chloro-4-fluoro-phenoxy)-2-azaspiro[3.3]heptan-2-yl]-3-oxo-propyl]oxazolidin-2-one], for which inhibition was half-maximal at 6 nM (IC50).
The same measure for `O=C1N[C@H](CCC(=O)N2CC(c3ccc(Oc4ccc(F)cc4)cc3)C2)CO1` [Example 30, (4R)-4-[3-[3-[4-(4-Fluorophenoxy)phenyl]azetidin-1-yl]-3-oxo-propyl]oxazolidin-2-one]: 1 nM; for `O=C1N[C@H](CCC(=O)N2CC(c3ccc(Oc4ccc(OC(F)(F)F)cc4)nc3)C2)CO1` [Example 31, (4R)-4-[3-Oxo-3-[3-[6-[4-(trifluoromethoxy)phenoxy]-3-pyridyl]azetidin-1-yl]propyl]oxaazolidin-2-one]: 83 nM.
Then `O=C1N[C@H](CCC(=O)N2CC3(CC(Oc4cncc(C(F)(F)F)n4)C3)C2)CO1` [Example 32, (4R)-4-[3-Oxo-3-[6-[6-(trifluoromethyl)pyrazin-2-yl]oxy-2-azaspiro[3.3]heptan-2-yl]propyl]oxazolidin-2-one], with 17 nM; and `O=C1N[C@H](CCC(=O)N2CC(C#Cc3cccc(Cl)c3)C2)CO1` [Example 33, (4R)-4-[3-[3-[2-(3-Chlorophenyl)ethynyl]azetidin-1-yl]-3-oxo-propyl]oxazolidin-2-one], with 12 nM.
Regarding `O=C1N[C@H](CCC(=O)N2CC(c3ccc(N4CCC(C(F)(F)F)C4)nc3)C2)CO1` (stereo partly drawn) [Example 34, (4R)-4-[3-Oxo-3-[3-[6-[3-(trifluoromethyl)pyrrolidin-1-yl]-3-pyridyl]azetidin-1-yl]propyl]oxazolidin-2-one], the IC50 worked out at 14 nM.
Compound `CC(C[C@@H]1COC(=O)N1)C(=O)N1CC(OCc2ccc(C(F)(F)F)cc2F)C1` (stereo partly drawn) [Example 35, (4R)-4-[3-[3-[[2-Fluoro-4-(trifluoromethyl)phenyl]methoxy]azetidin-1-yl]-2-methyl-3-oxo-propyl]oxazolidin-2-one] gave an IC50 of 13 nM.
The same measure for `O=C(CCc1cnn[nH]1)N1CC(OCc2ccc(C(F)(F)F)cc2F)C1` [Example 36, 1-(3-((2-Fluoro-4-(trifluoromethyl)benzyl)oxy)azetidin-1-yl)-3-(1H-1,2,3-triazol-5-yl)propan-1-one]: 4030 nM.
The same measure for `O=C(CCc1cnn[nH]1)N1CC(c2ccc(C3(C(F)(F)F)CC3)cc2)C1` [Example 37, 3-(1H-1,2,3-Triazol-5-yl)-1-(3-(4-(1-(trifluoromethyl)cyclo-propyl)phenyl)azetidin-1-yl)propan-1-one]: 339 nM.
The same measure for `CC(C)(Oc1ccc(C2CN(C(=O)CCc3cnn[nH]3)C2)cc1)C(F)(F)F` [Example 38, 3-(1H-1,2,3-Triazol-5-yl)-l-(3-(4-((1,1,1-trifluoro-2-methylpropan-2-yl)oxy)phenyl)azetidin-1-yl)propan-1-one]: 234 nM.
